Measurements published in US20040228831A1, “Polymeric conjugates for tissue activated drug delivery” (priority 2003, published 2004).

Legend:
[1] = Maximum tolerated dose of Pt construct and oxaliplatin; type: in vivo, C57B1/6 mice; conditions: mice
Source text: Plasmin labile construct, 26, bearing an aspartic acid-platinum-diamino-cyclohexane (DACH) chelate was studied using C57B1/6 mice bearing s.c. B16-F10 murine melanoma (FIG. 1C). […] Thus, a substantially larger dose of Pt was safely delivered by the polymeric prodrug construct.

murine melanoma B16-F10 = test: Anti-tumor efficacy in mice bearing s.c. murine melanoma B16-F10, daily i.v. x5; type: in vivo; conditions: 2 mg/kg (free drug's MTD), daily i.v. for 5 days
Description: (§1) Polymeric prodrug conjugate, conjugate, 6, a doxorubicin (Dox)-containing construct in which the drug moiety is attached to the PEG backbone via a cathepsin B-cleavable linker peptide was tested in mice bearing murine melanoma B16-F10 implanted s.c. Mice were treated by daily i.v. (tail vein) injection for 5 consecutive days, beginning on the day when tumors became palpable. The conjugate was studied at the maximum tolerated dose (MTD) of the free drug, 2 mg Dox/kg (equimolar comparison), and at the conjugate's MTD, 6 mg Dox/kg (equitoxic comparison). The conjugate, 6, or Dox administered at the free drug's MTD (2 mg/kg) had minimal anti-tumor effect (30% tumor reduction, 3.4 days delay in reaching 500 mg). But at the conjugate's MTD of 6 mg Dox/kg there was substantial activity (FIG. 1A). The conjugate reduced tumor by 81% and extended the time to reach 500 mg to 6.5 days. Therefore as a polymeric prodrug conjugate it was possible to increase the tolerated drug dose by a factor of 3, and this increase permitted the achievement of substantially greater anti-tumor efficacy.

[2] = Maximum tolerated dose of Dox and conjugate in mice, daily i.v. x5; type: in vivo; conditions: daily i.v. injection for 5 consecutive days
Description: as §1

Compound | maximum tolerated dose (MTD) [1] [mg Pt/kg] | delay in reaching 500 mg (murine melanoma B16-F10) [days] | tumor reduction (murine melanoma B16-F10) [%] | maximum tolerated dose (MTD) [2] [mg Dox/kg]
O=C1[O][Pt]2([NH][C@@H]3CCCC[C@H]3[NH]2)[O]C1=O [oxaliplatin] | 10 |  |  | 
COc1cccc2c1C(=O)c1c(O)c3c(c(O)c1C2=O)C[C@@](O)(C(=O)CO)C[C@@H]3O[C@H]1C[C@H](N)[C@H](O)[C@H](C)O1 [Dox, doxorubicin] |  | 3.4 | 30 | 2
